Measured values published in patent US8143241B2, “DNA damage repair inhibitors for treatment of cancer” (Kudos Pharmaceuticals Limited, priority 2003, dated 2012).

Assays:
[1] = target: PARP-1 (Homo sapiens, UniProt P09874); test: PARP-1 enzyme activity inhibition; format: biochemical; settings: read-out: IC50 against PARP-1 enzyme activity
Procedure: Chemical inhibitors were dissolved in DMSO at 10 mM and stored at −20° C. in the dark.

[2] = test system: Brca2 deficient ES cell derived tumours; test: ES cell xenografts (teratomas) in athymic BALB/c nude mice; format: in vivo, mouse; settings: 15 mg/kg intraperitoneal, two doses per day
Procedure: ES cell derived tumours (teratomas) were produced by subcutaneous injection of […] ES cells into 6-8 week athymic BALB/c nude (nu/nu) mice. Twenty mice were injected with Brca2 deficient ES cells and an identical cohort with isogenic wild type cells. Two days after cell injection, treatment with KU0058684 or vehicle was initiated. For three consecutive days, two Intraperitoneal doses of KU0058684 (or vehicle) were administered, six hour apart, each at a dosage of 15 mg/kg animal. This treatment was then stopped for five days and then reinitiated (as before) for another three consecutive days. Growth of tumours was monitored from a minimum volume of 0.3 cm^3. The data in FIG. 16 represents two separate experiments involving in total 40 animals.

Sequence of PARP-1 (P09874 whole entry): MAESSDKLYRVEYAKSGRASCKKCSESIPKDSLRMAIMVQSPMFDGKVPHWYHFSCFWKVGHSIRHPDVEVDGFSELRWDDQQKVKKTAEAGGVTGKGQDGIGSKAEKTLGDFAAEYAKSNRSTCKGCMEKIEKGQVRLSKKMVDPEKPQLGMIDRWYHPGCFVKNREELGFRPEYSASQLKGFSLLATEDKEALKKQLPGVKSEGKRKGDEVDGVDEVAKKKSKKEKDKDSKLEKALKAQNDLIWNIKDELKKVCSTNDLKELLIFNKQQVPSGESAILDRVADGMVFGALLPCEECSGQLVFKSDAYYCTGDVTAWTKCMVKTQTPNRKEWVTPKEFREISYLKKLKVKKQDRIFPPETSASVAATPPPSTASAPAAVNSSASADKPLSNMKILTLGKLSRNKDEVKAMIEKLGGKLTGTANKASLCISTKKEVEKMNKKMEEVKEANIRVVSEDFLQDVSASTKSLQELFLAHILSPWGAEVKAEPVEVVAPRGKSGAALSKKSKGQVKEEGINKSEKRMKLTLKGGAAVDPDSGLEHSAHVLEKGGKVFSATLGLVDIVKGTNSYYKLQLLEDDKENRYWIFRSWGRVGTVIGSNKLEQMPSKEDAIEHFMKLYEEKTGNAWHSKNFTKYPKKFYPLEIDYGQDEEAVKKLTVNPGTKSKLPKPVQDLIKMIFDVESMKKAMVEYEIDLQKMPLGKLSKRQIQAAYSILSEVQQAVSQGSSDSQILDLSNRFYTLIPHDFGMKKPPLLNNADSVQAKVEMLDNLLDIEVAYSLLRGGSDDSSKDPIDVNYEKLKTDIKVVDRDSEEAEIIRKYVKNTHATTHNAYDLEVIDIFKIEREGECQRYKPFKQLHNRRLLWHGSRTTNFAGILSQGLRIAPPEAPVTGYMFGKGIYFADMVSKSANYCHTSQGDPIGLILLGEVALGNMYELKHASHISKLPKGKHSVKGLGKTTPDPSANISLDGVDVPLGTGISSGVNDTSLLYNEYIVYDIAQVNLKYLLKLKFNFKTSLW

## O=C1CCC(=O)N1c1cc(Cc2n[nH]c(=O)c3ccccc23)ccc1F [KU0058684]
[1]
  IC50: 3.2 nM
[2]
  growth of Brca2 deficient tumours relative to wild-type tumours: dramatically reduce the growth
